Key:
[1] = system: SK-N-SH human neuroblastoma cells; assay: Detection of NO produced by cNOS in SK-N-SH cells (fluorescence imaging); assay type: cell-based; conditions: estradiol-stimulated neuroblastoma cells
Description: FIG. 7 illustrates Cu(FL5) detection of NO produced by cNOS. (a) NO detection in SK-N-SH cells by Cu(FL5). Left to right: 25 min incubation of Cu(FL5) (1 μM) and 5, 10, 15, 25 min after co-treatment of Cu(FL5) (1 μM) and 17β-estradiol (100 nM). Images were taken with a Nikon Eclipse TS100 microscope after removing the DMEM media and washing the cells with PBS. Top: fluorescence images; bottom: phase contrast images. (b) Fluorescence intensity (F(t)/FCu(FL5)) from a was plotted against incubation time. (c) NO production with or without of L-NNA. Right: NO detection in cells after 10 min co-incubation of Cu(FL5) (1 μM) and 17β-estradiol (100 nM). Left: NO detection in cells pre-treated with L-NNA for 1 h before addition of Cu(FL5) and 17β-estradiol.
We investigated the ability of Cu(FL5) to detect NO produced in SK-N-SH human neuroblastoma cells under physiological conditions, since constitutive NO synthase (“cNOS”) in this cell line can be activated by estrogen to produce NO. Estrogen administration leads to an increase in the cytosolic Ca(II) concentration that alters the structure of calmodulin, which in turn activates cNOS. The NO-dependent fluorescence response, monitored after simultaneous administration of 17β-estradiol (100 nM) and Cu(FL5) (1 μM) to the cells, was completed within 5 min with a 4.0±0.6-fold increase in fluorescence (FIGS. 5a and b). […] As another control, HeLa cells were co-treated with 17β-estradiol (100 nM) and Cu(FL5) (1 μM).
Raw 264.7, SK-N-SH, and HeLa cells were purchased from the American Type Culture Collection (ATCC). All three cell lines were maintained in Dulbecco's modified Eagles' media (DMEM) (GibcoBRL) containing 10% (v/v) heat-inactivated fetal bovine serum (FBS) (HyClone), 1 mM sodium pyruvate (Sigma), 100 units/ml penicillin, 100 μg/ml streptomycin (Invitrogen), and 0.1 mM nonessential amino acid solution for minimal essential medium (Sigma). All cells were grown at 37° C. in a humidified atmosphere of 10% CO2. A nitrite assay was performed with Griess reagents (Promega) on Raw 264.7 cells grown in DMEM free of phenol red. Calcium sensor fluo-4 AM was purchased from Invitrogen. MTT [3-(4,5-dimethylthiazol-2-yl)-2,5-diphenyltetrazolium bromide] (Sigma-Aldrich) assay was described in Supplementary information. The expression of iNOS in Raw 264.7 cells was analyzed by Western blot on the extracts of cells stimulated by LPS and INF-γ. The protein was silenced by short hairpin RNA-induced RNAi and the resulting cell lines were used in fluorescence imaging by Cu(FL5).

Quantum yield = assay type: physicochemical
From the text: Quantum yield may be obtained by comparison of the integrated area of the corrected emission spectrum of the sample with that of a reference solution. A preferred reference solution is a solution of fluorescein in 0.1 N NaOH, quantum efficiency 0.95. The concentration of the reference is adjusted to match the absorbance of the test sample. The quantum yields may be calculated using the following equation.
Upon addition of excess NO, a 499 nm peak in the UV-vis spectrum of Cu(FL5) in pH 7.0 buffered solution red-shifted back to the λmax characteristic of FL5 or the synthetic FL5−NO compound (504 nm), which differs from the band formed in the reaction of FL5 with 1 equivalent of Cu(I) added as [Cu(CH3CN)4](BF4) (506 nm). […] In addition, the spectrum of the NO reaction solution closely resembled that of the monoanionic fluorescein formed by lowering the pH from 7.0 to 5.0. […] These values are in the range previously reported for N-nitrosamines. The presence of two separate chemical shifts might arise from different isomers in solution, the Δδ of 2.29 being similar to that of previously reported of N-nitrosamines. […] Lastly, FL5−NO is brighter than FL5 or Cu(FL5), the respective quantum yields being ΦFL-NO=0.58±0.02 and ΦFL=0.077±0.002.

[2] = Stability of nitrosated ligand at pH 7.0; assay type: physicochemical
From the text: High resolution MS of FL5-^14NO and FL-^15NO were also obtained, showing m/z=600.0729 for FL5-^14NO and 601.0736 for FL5-^15NO, corresponding to [FL5+NO−H+Cl]^− (calcd. m/z 600.0729 and 601.0700).

[3] = Fluorescence response to NO in buffered aqueous solution
Description: FIG. 5 depicts the fluorescence response of Cu(FL5) to NO. Fluorescence emission spectra (λex=503 nm) of a deoxygenated 1 μM solution of Cu(FL5) in buffered solution (50 mM PIPES, pH 7.0, 100 mM KCl) before (dashed line), immediately, 1, 2 and 5 min after (solid lines) admission of 1300 equiv of NO (g) at 37° C.
The fluorescence of a 1 μM FL5 solution was diminished by 18±3% upon introduction of an equimolar quantity of CuCl2 at 37° C. Addition of excess NO to a buffered aqueous Cu(FL5) solution led to an immediate 11.2±1.5-fold increase in fluorescence (FIG. 5). […] The lower detection limit for NO is 5 nM.
A commercially available NO probe, DAF-2 (o-diaminofluorescein), was used for comparison with Cu(FL5). The fluorescence of DAF-2 is unchanged in the presence of NO and the absence of O2 over a period of 1 h.
As depicted in FIG. 4, NO detection by Cu(FL5) occurs, formally, by nitric oxide-induced reduction of Cu(II) to Cu(I), forming NO^+, which nitrosates the ligand with concomitant dissociation from copper and fluorescence turn-on. The mechanism of turn-on emission of Cu(FL5) by NO was investigated by EPR, UV-vis, NMR and fluorescence spectroscopy and by liquid chromatography-mass spectrometry (LC-MS, low resolution MS).

## CC(=O)Oc1ccc2c(c1)Oc1cc(OC(C)=O)ccc1C21OC(=O)c2cc(N)c(N)cc21 [DAF-2 DA, o-diaminofluorescein diacetate, reference compound]
[1]
  fluorescence increase of treated cells 30 min after activation of cNOS: only a slight fluorescence increase

## Cc1ccc2cccc(N(Cc3c(O)ccc4c(-c5ccccc5C(=O)O)c5cc(Cl)c(=O)cc-5oc34)N=O)c2n1 [FL5−NO, 2-{2-chloro-6-hydroxy-5-[((2-methylquinolin-8-yl)(nitroso)amino)-methyl]-3-oxo-3H-xanthen-9-yl}-benzoic acid]
Quantum yield
  quantum yield Φ: 0.58±0.02
[2]
  stability: stable for several days

## o-diaminofluorescein [DAF-2, reference compound]
[3]
  fluorescence in the presence of NO when O2 is present: turn-on fluorescence
[3]; over a period of 1 h
  fluorescence in the presence of NO and the absence of O2: unchanged

From patent US7494821B2, “Fluorescein based sensors for tracking nitric oxide in live cells” (Massachusetts Institute of Technology, priority 2005, dated 2009)
